Key:
MCF-7 = assay: Cytotoxicity assay (SRB), MCF-7; format: cell-based; conditions: Homo sapiens, MCF7, 72 h, MCF-7 cells, 3 days, SRB; read-out: In Vitro Cellular Activity IC50 MCF-7
Procedure, shortened: (§1)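 BT474 (12000 cells/well) was treated for 6 days, whereas HCT-116 (4000), LoVo (6000) and MCF-7 (6000) were treated for 3 days, all in RPMI 1640 containing 5% FBS. Surviving-cell percentage came from SRB dye binding measured at 540 nm.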

BT474 = assay: Cytotoxicity assay (SRB), BT474; format: cell-based; conditions: Homo sapiens, BT-474, 144 h, BT474 cells, 6 days, SRB; read-out: In Vitro Cellular Activity IC50 BT474
Procedure, shortened: as §1

LoVo = assay: Cytotoxicity assay (SRB), LoVo; format: cell-based; conditions: Homo sapiens, LoVo, 72 h, LoVo cells, 3 days, SRB; read-out: In Vitro Cellular Activity IC50 LOVO
Procedure, shortened: as §1

cyclin B/CDK1 enzyme = molecular target: T1, cyclin B/CDK1 enzyme (Homo sapiens, UniProt P06493); assay: CDK1 ELISA kinase assay (phospho-Rb ser 795 detection); format: biochemical; conditions: In Vitro Enzyme Assay, cyclin B/CDK1, read-out: CDK1 IC50
T1 construct: purchased New England BioLabs; host or cells: Sf9 insect cells, recombinant baculovirus
T1 sequence (P06493 whole entry): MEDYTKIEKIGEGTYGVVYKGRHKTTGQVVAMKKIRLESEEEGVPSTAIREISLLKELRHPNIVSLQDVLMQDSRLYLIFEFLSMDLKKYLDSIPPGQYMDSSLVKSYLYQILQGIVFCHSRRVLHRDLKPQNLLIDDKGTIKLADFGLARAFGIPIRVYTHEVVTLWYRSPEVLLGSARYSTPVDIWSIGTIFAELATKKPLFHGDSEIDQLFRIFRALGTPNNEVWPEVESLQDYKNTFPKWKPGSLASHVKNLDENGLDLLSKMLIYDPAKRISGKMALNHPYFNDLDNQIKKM
T1 sequence (P14635 whole entry partner): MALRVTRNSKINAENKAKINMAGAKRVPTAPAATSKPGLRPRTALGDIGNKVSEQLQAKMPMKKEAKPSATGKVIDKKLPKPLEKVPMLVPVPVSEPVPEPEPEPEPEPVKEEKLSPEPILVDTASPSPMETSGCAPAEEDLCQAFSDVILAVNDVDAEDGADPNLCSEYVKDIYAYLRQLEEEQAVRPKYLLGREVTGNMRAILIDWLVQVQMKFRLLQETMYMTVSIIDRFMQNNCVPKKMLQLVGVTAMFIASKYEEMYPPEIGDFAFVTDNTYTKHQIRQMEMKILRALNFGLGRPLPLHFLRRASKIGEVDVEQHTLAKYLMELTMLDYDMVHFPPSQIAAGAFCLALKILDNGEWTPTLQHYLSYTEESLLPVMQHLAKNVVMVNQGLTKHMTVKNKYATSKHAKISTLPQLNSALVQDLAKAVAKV
Procedure, shortened: (§2)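 Wells were coated overnight with GST-Rb C-terminal fragment, then blocked. Compound (10 ug/ml final) and cyclin/CDK enzyme from baculovirus-infected Sf9 cells with 200 μM ATP reacted 1 h at 30° C. Ser795 phosphorylation was detected by ELISA at 450 nm.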

cyclin E/CDK2 enzyme = molecular target: T2, cyclin E/CDK2 enzyme (Homo sapiens, UniProt P24941); assay: CDK2 ELISA kinase assay (phospho-Rb ser 795 detection); format: biochemical; conditions: In Vitro Enzyme Assay, cyclin E/CDK2, read-out: CDK2 IC50
T2 construct: made in house; host or cells: Sf9 insect cells, recombinant baculovirus
Procedure, shortened: as §2

cyclin D1/cdk 4 enzyme = molecular target: T3, cyclin D1/cdk 4 enzyme (Homo sapiens, UniProt P11802); assay: CDK4 ELISA kinase assay (phospho-Rb ser 795 detection); format: biochemical; conditions: In Vitro Enzyme Assay, cyclin D1/cdk 4, read-out: CDK4 IC50
T3 construct: made in house; host or cells: Sf9 insect cells, recombinant baculovirus
T3 sequence (P11802 whole entry, species assumed): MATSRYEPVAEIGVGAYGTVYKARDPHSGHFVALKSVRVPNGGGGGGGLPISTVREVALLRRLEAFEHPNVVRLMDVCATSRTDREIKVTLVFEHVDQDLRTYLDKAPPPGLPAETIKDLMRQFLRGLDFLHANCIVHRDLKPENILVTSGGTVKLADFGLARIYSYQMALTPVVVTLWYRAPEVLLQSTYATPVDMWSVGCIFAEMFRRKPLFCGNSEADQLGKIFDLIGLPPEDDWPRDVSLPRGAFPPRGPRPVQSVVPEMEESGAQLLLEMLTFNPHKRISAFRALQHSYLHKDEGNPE
T3 sequence (P24385 whole entry partner, species assumed): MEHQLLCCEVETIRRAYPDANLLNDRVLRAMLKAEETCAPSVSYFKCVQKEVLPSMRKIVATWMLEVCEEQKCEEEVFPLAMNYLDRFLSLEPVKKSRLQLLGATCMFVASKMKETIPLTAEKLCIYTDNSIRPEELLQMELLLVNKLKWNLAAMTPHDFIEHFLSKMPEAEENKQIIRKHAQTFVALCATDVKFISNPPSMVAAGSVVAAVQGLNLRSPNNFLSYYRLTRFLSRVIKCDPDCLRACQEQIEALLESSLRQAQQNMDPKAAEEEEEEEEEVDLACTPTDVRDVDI
Procedure, shortened: as §2

HCT-116 = assay: Cytotoxicity assay (SRB), HCT-116; format: cell-based; conditions: Homo sapiens, HCT-116, 72 h, HCT116 cells, 3 days, SRB; read-out: In Vitro Cellular Activity IC50 HCT116
Procedure, shortened: as §1

Structure (SMILES) | IC50 (cyclin B/CDK1 enzyme) | IC50 (cyclin E/CDK2 enzyme) | IC50 (cyclin D1/cdk 4 enzyme) | IC50 (MCF-7) | IC50 (BT474) | IC50 (LoVo) | IC50 (HCT-116)
COc1ccc(CNC=C2C(=O)NC(=O)c3ccc(C=Cn4ccnc4)cc32)cc1O [Example 734, 4-[(3-Hydroxy-4-methoxy-benzylamino)-methylene]-6-(2-imidazol-1-yl-vinyl)-4H-isoquinoline-1,3-dione] | 20.2 µM | 5 µM | < 0.005 µM | 6.7 µM | 9.9 µM | 2.5 µM | 11.9 µM
NS(=O)(=O)c1ccc(CNC=C2C(=O)NC(=O)c3ccc(-c4ccc(F)cc4)cc32)cc1 [Example 738, 4-({[6-(4-Fluoro-phenyl)-1,3-dioxo-2,3-dihydro-1H-isoquinolin-4-ylidenemethyl]-amino}-methyl)-benzenesulfonamide] | 32.4 µM | 32.4 µM | 0.45 µM | 15.8 µM | 47.1 µM | 39.1 µM | 18.8 µM
NS(=O)(=O)c1ccc(CNC=C2C(=O)NC(=O)c3ccc(-c4cccc(F)c4)cc32)cc1 [Example 739, 4-({[6-(3-Fluoro-phenyl)-1,3-dioxo-2,3-dihydro-1H-isoquinolin-4-ylidenemethyl]-amino}-methyl)-benzenesulfonamide] | 30.3 µM | > 50 µM | 1.77 µM | 17.1 µM | 32.8 µM | > 50 µM | 26.4 µM
NS(=O)(=O)c1ccc(CNC=C2C(=O)NC(=O)c3ccc(-c4ccc(Cl)cc4)cc32)cc1 [Example 749, 4-({[6-(4-Chloro-phenyl)-1,3-dioxo-2,3-dihydro-1H-isoquinolin-4-ylidenemethyl]-amino}-methyl)-benzenesulfonamide] | 38.8 µM | 8 µM | 1.48 µM | 14.1 µM | > 50 µM | 47.2 µM | 20.9 µM
COc1ccccc1-c1ccc2c(c1)C(=CNCc1ccc(O)c(O)c1)C(=O)NC2=O [Example 766, 4-[(3,4-Dihydroxy-benzylamino)-methylene]-6-(2-methoxy-phenyl)-4H-isoquinoline-1,3-dione] | 43.4 µM | 14.4 µM | 1.29 µM | 22.1 µM | 33.9 µM | 32.3 µM | 21.6 µM
O=C1NC(=O)c2ccc(-c3cccc(F)c3)cc2C1=CNCc1ccc(O)c(O)c1 [Example 768, 4-[(3,4-Dihydroxy-benzylamino)-methylene]-6-(3-fluoro-phenyl)-4H-isoquinoline-1,3-dione] | 20.6 µM | 9.6 µM | 0.55 µM | 28.4 µM | 29.1 µM | 25.7 µM | 27.4 µM
O=C1NC(=O)c2ccc(-c3cccc(C(=O)O)c3)cc2C1=CNCc1ccc(O)c(O)c1 [Example 771, 3-{4-[(3,4-Dihydroxy-benzylamino)-methylene]-1,3-dioxo-1,2,3,4-tetrahydro-isoquinolin-6-yl}-benzoic acid] | 26.5 µM | 10 µM | 0.82 µM | > 50 µM | 33.3 µM | 48 µM | 39.5 µM
O=C1NC(=O)c2ccc(-c3cccc(C(F)(F)F)c3)cc2C1=CNCc1ccc(O)c(O)c1 [Example 773, 4-[(3,4-Dihydroxy-benzylamino)-methylene]-6-(3-trifluoromethyl-phenyl)-4H-isoquinoline-1,3-dione] | > 50 µM | 16.5 µM | 1.18 µM | 12.6 µM | 20.9 µM | 14.4 µM | 13.7 µM

Now from value to molecule, other results behind:

IC50 (cyclin B/CDK1 enzyme) | IC50 (cyclin E/CDK2 enzyme) | IC50 (cyclin D1/cdk 4 enzyme) | Structure (SMILES) | IC50 (MCF-7) | IC50 (BT474) | IC50 (LoVo) | IC50 (HCT-116)
> 50 µM | > 50 µM | 0.14 µM | COc1ccc(CNC=C2C(=O)NC(=O)c3ccc(C=Cc4ccccn4)cc32)cc1O [Example 735, 4-[(3-Hydroxy-4-methoxy-benzylamino)-methylene]-6-(2-pyridin-2-yl-vinyl)-4H-isoquinoline-1,3-dione] | 21.9 µM | 20.1 µM | 11.4 µM | 18.2 µM
> 50 µM | 21.1 µM | 0.84 µM | CN(C)Cc1ccc(C=Cc2ccc3c(c2)C(=CNCc2ccc(O)c(O)c2)C(=O)NC3=O)cc1 [Example 736, 4-[(3,4-Dihydroxy-benzylamino)-methylene]-6-[2-(4-dimethylaminomethyl-phenyl)-vinyl]-4H-isoquinoline-1,3-dione] | > 50 µM | 39.9 µM | 11.5 µM | 20.5 µM
13.5 µM | 3.7 µM | 1.81 µM | NS(=O)(=O)c1ccc(CNC=C2C(=O)NC(=O)c3ccc(-c4ccccc4F)cc32)cc1 [Example 740, 4-({[6-(2-Fluoro-phenyl)-1,3-dioxo-2,3-dihydro-1H-isoquinolin-4-ylidenemethyl]-amino}-methyl)-benzenesulfonamide] | 8.3 µM | 9.7 µM | 10 µM | 7.7 µM
16.5 µM | 7.3 µM | 0.06 µM | COc1ccc(-c2ccc3c(c2)C(=CNCc2ccc(O)c(O)c2)C(=O)NC3=O)cc1 [Example 764, 4-[(3,4-Dihydroxy-benzylamino)-methylene]-6-(4-methoxy-phenyl)-4H-isoquinoline-1,3-dione] | 10.3 µM | 23.1 µM | 8.6 µM | 9.3 µM
21.1 µM | 11.5 µM | 0.27 µM | COc1cccc(-c2ccc3c(c2)C(=CNCc2ccc(O)c(O)c2)C(=O)NC3=O)c1 [Example 765, 4-[(3,4-Dihydroxy-benzylamino)-methylene]-6-(3-methoxy-phenyl)-4H-isoquinoline-1,3-dione] | 14.4 µM | 33.4 µM | 18.3 µM | 15.8 µM
15.4 µM | 9 µM | 0.17 µM | O=C1NC(=O)c2ccc(-c3ccc(F)cc3)cc2C1=CNCc1ccc(O)c(O)c1 [Example 767, 4-[(3,4-Dihydroxy-benzylamino)-methylene]-6-(4-fluoro-phenyl)-4H-isoquinoline-1,3-dione] | 25.2 µM | 44 µM | 21.4 µM | 25.9 µM
14.7 µM | 3.9 µM | 0.03 µM | O=C1NC(=O)c2ccc(-c3ccccc3F)cc2C1=CNCc1ccc(O)c(O)c1 [Example 769, 4-[(3,4-Dihydroxy-benzylamino)-methylene]-6-(2-fluoro-phenyl)-4H-isoquinoline-3,3-dione] | 17.9 µM | 17.9 µM | 15.5 µM | 13.4 µM
40.6 µM | 10.7 µM | 0.51 µM | O=C1NC(=O)c2ccc(-c3ccc(C(F)(F)F)cc3)cc2C1=CNCc1ccc(O)c(O)c1 [Example 772, 4-[(3,4-Dihydroxy-benzylamino)-methylene]-6-(4-trifluoromethyl-phenyl)-4H-isoquinoline-1,3-dione] | 12.2 µM | 28.1 µM | 15.4 µM | 15.6 µM
> 50 µM | 13.8 µM | 0.24 µM | CC(=O)c1cccc(-c2ccc3c(c2)C(=CNCc2ccc(O)c(O)c2)C(=O)NC3=O)c1 [Example 776, 6-(3-Acetyl-phenyl)-4-[(3,4-dihydroxy-benzylamino)-methylene]-4H-isoquinoline-1,3-dione] | 11.2 µM | 17.2 µM | 10.3 µM | 15.2 µM

— US7713994B2 (Wyeth LLC, priority 2005, dated 2010)
